Source: paper PMC7046186, “Targeting tRNA-synthetase interactions towards novel therapeutic discovery against eukaryotic pathogens” (PLoS Neglected Tropical Diseases, 2020)

Assays:
Format in all cases: biochemical
Lm ThrRS = biological target: T1, Lm ThrRS (Leishmania major, UniProt E9AEW4); test: aminoacylation of Lm tRNA-Thr with […]-Thr; settings: labelled compound, ATP
T1 construct: gene LMJF_35_1410; codon-optimised synthetic gene in pTYB2; C-terminal intein tag cleaved off; expressed in E. coli BL21(DE3)
T1 sequence (E9AEW4 1-787): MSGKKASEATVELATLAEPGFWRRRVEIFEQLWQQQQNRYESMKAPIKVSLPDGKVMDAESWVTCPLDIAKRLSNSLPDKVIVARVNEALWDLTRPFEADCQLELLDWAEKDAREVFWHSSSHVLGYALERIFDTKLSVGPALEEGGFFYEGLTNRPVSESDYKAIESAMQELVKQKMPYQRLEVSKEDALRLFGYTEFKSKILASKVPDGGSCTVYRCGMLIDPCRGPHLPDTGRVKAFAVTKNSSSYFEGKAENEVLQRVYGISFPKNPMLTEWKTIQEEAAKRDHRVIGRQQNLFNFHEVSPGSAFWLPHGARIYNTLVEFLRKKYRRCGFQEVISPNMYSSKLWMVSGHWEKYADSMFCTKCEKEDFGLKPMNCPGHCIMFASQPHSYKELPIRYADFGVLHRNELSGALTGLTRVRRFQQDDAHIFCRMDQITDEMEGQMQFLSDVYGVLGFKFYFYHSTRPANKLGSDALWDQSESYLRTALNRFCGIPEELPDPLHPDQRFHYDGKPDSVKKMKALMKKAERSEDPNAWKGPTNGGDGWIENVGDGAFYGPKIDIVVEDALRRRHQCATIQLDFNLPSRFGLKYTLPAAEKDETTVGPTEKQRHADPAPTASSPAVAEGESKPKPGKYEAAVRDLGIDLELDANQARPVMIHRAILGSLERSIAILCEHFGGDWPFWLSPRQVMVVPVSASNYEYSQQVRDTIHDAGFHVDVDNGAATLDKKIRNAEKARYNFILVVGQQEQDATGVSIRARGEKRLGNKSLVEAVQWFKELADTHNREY

human AlaRS [1] = biological target: T2, human AlaRS (Homo sapiens, UniProt P49588); test: ATP/PPi exchange; settings: 2 mM ATP, 90 μM alanine, 2 mM [32P]-PPi, 10 mM Mg2+, pH 7.2, 37 °C
T2 construct: gene AARS1; pET21a, C-terminal 6x-His tag; expressed in E. coli Rosetta(DE3)
T2 sequence (P49588 1-968): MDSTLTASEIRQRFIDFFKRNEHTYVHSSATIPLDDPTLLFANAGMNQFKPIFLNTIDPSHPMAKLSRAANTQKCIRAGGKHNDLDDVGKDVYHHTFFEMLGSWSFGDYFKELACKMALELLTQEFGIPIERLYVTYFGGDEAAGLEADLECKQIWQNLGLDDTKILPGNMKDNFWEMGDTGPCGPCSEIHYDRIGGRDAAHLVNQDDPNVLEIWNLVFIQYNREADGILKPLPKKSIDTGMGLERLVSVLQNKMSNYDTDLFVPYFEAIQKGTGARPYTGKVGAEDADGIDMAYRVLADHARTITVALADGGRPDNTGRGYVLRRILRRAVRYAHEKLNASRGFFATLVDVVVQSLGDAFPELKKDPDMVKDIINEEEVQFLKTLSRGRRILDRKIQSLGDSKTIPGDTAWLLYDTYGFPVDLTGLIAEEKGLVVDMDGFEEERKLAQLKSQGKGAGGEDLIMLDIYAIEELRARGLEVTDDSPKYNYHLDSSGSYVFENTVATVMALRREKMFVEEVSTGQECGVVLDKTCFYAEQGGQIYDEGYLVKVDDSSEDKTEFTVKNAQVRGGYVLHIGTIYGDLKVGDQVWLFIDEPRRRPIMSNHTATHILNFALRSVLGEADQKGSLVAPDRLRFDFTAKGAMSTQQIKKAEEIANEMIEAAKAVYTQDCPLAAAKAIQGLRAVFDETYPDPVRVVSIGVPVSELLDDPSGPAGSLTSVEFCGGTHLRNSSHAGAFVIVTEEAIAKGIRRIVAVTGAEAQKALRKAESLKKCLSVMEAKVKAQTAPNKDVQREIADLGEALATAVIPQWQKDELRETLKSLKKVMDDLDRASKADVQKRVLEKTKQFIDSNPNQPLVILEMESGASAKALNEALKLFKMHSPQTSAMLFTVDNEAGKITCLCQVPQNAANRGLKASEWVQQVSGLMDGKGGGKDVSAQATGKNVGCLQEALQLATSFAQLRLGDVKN

Lm AlaRS = biological target: T3, Lm AlaRS (Leishmania major, UniProt Q4QBJ3); test: ATP/PPi exchange; settings: 2 mM ATP, 90 μM alanine, 2 mM [32P]-PPi, 10 mM Mg2+, pH 7.2, 37 °C
T3 construct: gene LMJF_22_1540; codon-optimised synthetic gene in pTYB2; C-terminal intein tag cleaved off; expressed in E. coli BL21(DE3)
T3 sequence (Q4QBJ3 1-962): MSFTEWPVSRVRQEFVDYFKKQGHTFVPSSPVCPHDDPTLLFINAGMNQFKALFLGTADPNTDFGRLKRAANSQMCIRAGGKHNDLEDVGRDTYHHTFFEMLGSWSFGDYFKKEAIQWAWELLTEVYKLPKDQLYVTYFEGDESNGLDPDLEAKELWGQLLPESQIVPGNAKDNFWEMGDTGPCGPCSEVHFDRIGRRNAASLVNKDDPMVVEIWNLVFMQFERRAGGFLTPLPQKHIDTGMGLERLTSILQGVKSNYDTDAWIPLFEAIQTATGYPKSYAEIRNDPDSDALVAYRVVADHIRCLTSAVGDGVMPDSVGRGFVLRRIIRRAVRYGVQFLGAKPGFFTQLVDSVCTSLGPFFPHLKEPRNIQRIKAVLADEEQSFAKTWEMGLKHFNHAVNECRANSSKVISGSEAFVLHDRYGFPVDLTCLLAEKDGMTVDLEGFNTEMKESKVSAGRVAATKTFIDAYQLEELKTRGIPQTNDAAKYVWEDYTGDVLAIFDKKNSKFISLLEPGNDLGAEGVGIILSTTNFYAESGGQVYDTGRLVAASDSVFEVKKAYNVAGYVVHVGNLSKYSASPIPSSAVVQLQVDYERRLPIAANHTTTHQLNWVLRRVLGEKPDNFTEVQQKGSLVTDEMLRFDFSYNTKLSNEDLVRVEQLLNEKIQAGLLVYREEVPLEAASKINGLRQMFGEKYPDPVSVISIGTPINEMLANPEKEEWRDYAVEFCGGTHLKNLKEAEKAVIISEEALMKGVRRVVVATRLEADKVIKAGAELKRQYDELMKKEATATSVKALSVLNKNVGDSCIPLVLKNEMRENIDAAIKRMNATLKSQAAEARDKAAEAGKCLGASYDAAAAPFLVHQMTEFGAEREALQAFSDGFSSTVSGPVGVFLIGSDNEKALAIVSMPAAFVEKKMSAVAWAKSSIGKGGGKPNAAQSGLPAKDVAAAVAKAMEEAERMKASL

human AlaRS [2] = biological target: T2, human AlaRS; test: ATP/PPi exchange (amino acid activation); settings: 2 mM ATP, 2 mM [32P]-PPi, 10 mM Mg2+, pH 7.2, 37 °C, 90 μM alanine
Tc AlaRS = biological target: T4, Tc AlaRS (Trypanosoma cruzi, UniProt Q4D747); test: aminoacylation of Tc tRNA-Ala with […]-Ala; settings: labelled compound, ATP
T4 construct: gene Tc00.1047053506863.10; codon-optimised synthetic gene in pET21b; C-terminal 6x-His tag; expressed in E. coli XJb(DE3)
T4 sequence (Q4D747 1-959): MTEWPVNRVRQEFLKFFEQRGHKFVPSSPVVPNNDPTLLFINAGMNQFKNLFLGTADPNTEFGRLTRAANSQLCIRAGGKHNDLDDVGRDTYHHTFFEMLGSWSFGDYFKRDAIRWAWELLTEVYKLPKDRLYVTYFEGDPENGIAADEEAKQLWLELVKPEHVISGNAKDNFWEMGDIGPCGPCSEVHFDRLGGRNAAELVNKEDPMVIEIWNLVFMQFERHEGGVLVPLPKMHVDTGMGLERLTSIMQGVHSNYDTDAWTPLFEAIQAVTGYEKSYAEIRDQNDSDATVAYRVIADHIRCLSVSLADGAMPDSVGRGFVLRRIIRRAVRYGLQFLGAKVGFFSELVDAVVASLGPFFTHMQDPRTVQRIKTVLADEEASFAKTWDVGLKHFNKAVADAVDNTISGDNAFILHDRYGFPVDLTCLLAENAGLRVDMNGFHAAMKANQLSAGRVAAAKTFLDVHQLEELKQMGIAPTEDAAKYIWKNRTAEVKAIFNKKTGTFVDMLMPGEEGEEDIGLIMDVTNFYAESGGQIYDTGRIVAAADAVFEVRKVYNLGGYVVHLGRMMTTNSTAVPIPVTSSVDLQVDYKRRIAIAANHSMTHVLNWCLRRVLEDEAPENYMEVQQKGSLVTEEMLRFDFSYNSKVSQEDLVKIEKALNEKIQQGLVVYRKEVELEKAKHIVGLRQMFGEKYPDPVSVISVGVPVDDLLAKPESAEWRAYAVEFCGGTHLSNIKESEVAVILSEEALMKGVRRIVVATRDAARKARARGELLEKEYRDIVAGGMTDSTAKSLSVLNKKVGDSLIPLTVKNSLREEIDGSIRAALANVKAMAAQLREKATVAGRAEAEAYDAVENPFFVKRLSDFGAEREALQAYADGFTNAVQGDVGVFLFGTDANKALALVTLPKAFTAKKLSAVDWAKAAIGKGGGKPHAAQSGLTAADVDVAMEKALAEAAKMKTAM

C[C@@H](O)[C@H](N)C(=O)O [threonine]
aminoacylation of Lm tRNA-Thr with [14C]-Thr (Lm ThrRS): re-screened against Lm Threonyl-tRNA synthetase (ThrRS) and tRNA^Thr aminoacylation

Nc1ncnc2c1ncn2[C@@H]1O[C@H](COP(=O)(O)OP(=O)(O)OP(=O)(O)O)[C@@H](O)[C@H]1O [ATP]
ATP/PPi exchange (human AlaRS [1]): we used pyrophosphate exchange to monitor ATP-dependent amino acid activation
ATP/PPi exchange (Lm AlaRS): we used pyrophosphate exchange to monitor ATP-dependent amino acid activation

C[C@H](N)C(=O)O [alanine]
ATP/PPi exchange (amino acid activation) (human AlaRS [2]): Treatment of the human AlaRS enzyme with the MNP inhibitors had no effect on amino acid activation
aminoacylation of Tc tRNA-Ala with [14C]-Ala (Tc AlaRS): aminoacylation inhibition assay using Tc AlaRS and tRNA^Ala
